Some results are limits rather than exact numbers.

IC50 data for 15 compounds are collected here from patent US8673911B2, “Inhibitors of histone deacetylase” (MethylGene Inc., priority 2007, dated 2014).

This assay addresses one or more of HDAC4, HDAC5, HDAC6, HDAC7, HDAC8, HDAC9 and HDAC11. Put plainly: Inhibition of histone deacetylase enzymatic activity (fluorogenic Boc-Lys(Ac)-AMC / Boc-Lys(trifluoroacetyl)-AMC substrate). The settings on record: against one or more of HDAC4, HDAC5, HDAC6, HDAC7, HDAC8, HDAC9 and HDAC11. The class given is biochemical. The method, then:
Inhibition of HDAC-1,2,3,6 and 8
The following protocol is used to assay the compounds of the invention. In the assay, the buffer used is 25 mM HEPES, pH 8.0, 137 mM NaCl, 2.7 mM KCl, 1 mM MgCl2 and the substrate is Boc-Lys(Ac)-AMC in a 50 mM stock solution in DMSO. The enzyme stock solution is 4.08 μg/mL in buffer.
The compounds are pre-incubated (2 μl, in DMSO diluted to […] in buffer for transfer to assay plate) with enzyme (20 μL of 4.08 μg/mL) for 10 minutes at room temperature (35 μL pre-incubation volume). The mixture is pre-incubated for 5 minutes at room temperature. The reaction is started by bringing the temperature to 37° C. and adding 15 μL substrate. Total reaction volume is 50 μL. The reaction is stopped after 20 minutes by addition of 50 μL developer, prepared as directed by Biomol (FLUOR DE LYS™ developer, Cat. # KI-105). A plate is incubated in the dark for 10 minutes at room temperature before reading (λEx=360 nm, λEm=470 nm, Cutoff filter at 435 nm).
Inhibition of Class II HDAC and HDAC-11
A 30 mM stock of Boc-Lys(trifluoroacetyl)-AMC substrate is prepared in DMSO. 2 μL test compound in DMSO is diluted to 50 μL in buffer (25 mM HEPES, pH 8.0, 137 mM NaCl, 2.7 mM KCl, 1 mM MgCl2, 0.1% BSA) and pre-incubated with HDAC enzyme (30 μL of a final enzyme concentration of 0.1-0.2 nM) for 10 minutes at room temperature. Reaction is started by adding 18 μL Boc-Lys(trifluoroacetyl)-AMC substrate and incubating at 37° C. for 20-30 minutes. The reaction is stopped by adding 50 μL trypsin (1 mg/mL) and a known HDAC inhibitor. The plate is then incubated in the dark for 20 minutes at room temperature and read with Ex=360 nm, Em=470 nm, cutoff filter at 435 nm.
`O=C(NO)c1sc(C(c2ccccc2)c2ccccc2)nc1-c1ccccc1` [Compound 150, 2-benzhydryl-N-hydroxy-4-phenylthiazole-5-carboxamide] registered an IC50 of under 0.25 µM.

Turning to `O=C(NO)c1sc(C2CCN(S(=O)(=O)c3ccccc3)CC2)nc1-c1ccccc1` [Compound 151, N-hydroxy-4-phenyl-2-(1-(phenylsulfonyl)piperidin-4-yl)thiazole-5-carboxamide], the IC50 was under 0.25 µM.

In turn, `O=C(NO)c1sc(C2CCN(CCc3c[nH]c4ccccc34)CC2)nc1-c1ccccc1` [Compound 152, 2-(1-(2-(1H-indol-3-yl)ethyl)piperidin-4-yl)-N-hydroxy-4-phenylthiazole-5-carboxamide] showed an IC50 of under 0.25 µM.

`O=C(NO)c1sc(-c2ccccn2)nc1-c1ccccc1` [Compound 153, N-hydroxy-4-phenyl-2-(pyridin-2-yl)thiazole-5-carboxamide] registered a 50% inhibitory concentration (IC50) of 0.25 to 0.5 µM.

In the case of `COc1ccc(S(=O)(=O)Nc2ccc3sc(C(=O)NO)c(-c4ccccc4)c3c2)cc1` [Compound 154, N-hydroxy-5-(4-methoxyphenyl-sulfonamido)-3-phenylbenzo[b] thiophene-2-carboxamide], the IC50 was in the range of 0.5 to 0.75 µM.

Consider `O=C(Cc1ccc(C(F)(F)F)cc1)Nc1ccc(C(=O)NO)c(-c2ccccc2)c1` [Compound 155, N-hydroxy-5-(2-(4-(trifluoromethyl)phenyl)acetamido) biphenyl-2-carboxamide], for which the half-maximal inhibitory concentration (IC50) was under 0.25 µM.

Compound `O=C(NO)c1sc2ccc(NS(=O)(=O)Cc3ccccc3)cc2c1-c1ccccc1` [Compound 157, N-hydroxy-3-phenyl-5-(phenylmethyl-sulfonamido) benzo[b]thiophene-2-carboxamide] displayed a half-maximal inhibitory concentration (IC50) of under 0.25 µM.

Compound `CC(=O)Nc1ccc(S(=O)(=O)N2CCC(c3nc(-c4ccccc4)c(C(=O)NO)s3)CC2)cc1` [Compound 158, 2-(1-(4-acetamidophenyl-sulfonyl)piperidin-4-yl)-N-hydroxy-4-phenylthiazole-5-carboxamide] displayed a half-maximal inhibitory concentration (IC50) of under 0.25 µM.

Take `O=C(NO)c1sc2ccc(NS(=O)(=O)c3cccs3)cc2c1-c1ccccc1` [Compound 160]: the IC50 is 0.25 to 0.5 µM.

For `O=C(NO)c1ccc(CN2C(=O)c3ccccc3Oc3ccccc32)cc1-c1ccccc1` [Compound 162, N-hydroxy-5-((11-oxodibenzo[b,f] [1,4]oxazepin-10(11H)-yl)methyl)biphenyl-2-carboxamide], the IC50 is under 0.25 µM.

`O=C(NCc1ccccc1)OCc1cc(-c2ccccc2)c(C(=O)NO)s1` [Compound 180, (5-(hydroxycarbamoyl)-4-phenylthiophen-2-yl)methyl benzylcarbamate] had an IC50 of under 0.25 µM.

As to `CN(Cc1ccccc1)C(=O)OCc1cc(-c2ccccc2)c(C(=O)NO)s1` [Compound 181, (5-(hydroxycarbamoyl)-4-phenylthiophen-2-yl)methyl benzyl(methyl)carbamate], the IC50 is under 0.25 µM.

With `CN(Cc1ccccc1)Cc1cc(-c2ccccc2)c(C(=O)NO)s1` [Compound 182, 5-((benzyl(methyl)amino)methyl)-N-hydroxy-3-phenylthiophene-2-carboxamide], the IC50 is under 0.25 µM.

`O=C(NO)c1sc(-c2ccc3c(c2)OCO3)nc1-c1ccccc1` [compound 81] registered an IC50 of under 0.25 µM.

Regarding `O=C(Nc1ccccc1Oc1ccccc1)c1ccc(C(=O)NO)c(-c2ccccc2)c1` [compound 105], the IC50 fell in the range of 0.5 to 0.75 µM.
